{"source": "paper PMC5456383", "about": "(PLoS ONE, 2017)", "key": {"[1]": {"test_system": "clinical isolates of A. felis from cats with invasive aspergillosis", "details": "cited from earlier work", "excerpt": "Echinocandins have concentration-dependent activity against Aspergillus spp."}, "[2]": {"details": "concentration independent, cited from earlier work", "excerpt": "The relationship between antifungal in vivo susceptibility, dosages, drug concentrations within various body compartments and toxicological effects are not completely understood. […] For example, in sino-orbital aspergillosis systemic therapy may not be sufficient to penetrate the site of infection and reduce fungal burden. In addition, our work here is based upon total plasma concentra ..."}, "[3]": {"details": "caspofungin-treated patients with candidemia; cited from earlier work"}, "[4]": {"test_system": "invasive pulmonary aspergillosis", "details": "cited from earlier work"}, "[5]": {"set-up": "Time at which steady state was achieved: dose or concentration left out as unconfirmed", "details": "cited from earlier work"}, "[6]": {"assay": "Tolerability of IV caspofungin in healthy cats (physical examination, blood count, biochemistry)", "experimental": "(§1) Cats were housed individually and acclimatized to the clinical environment for three days prior to the start of the study with free access to food and water.\n(§2) For drug administration, a peripheral catheter (22G IV radiopaque catheter; OPTIVA®, Smiths Medical International Ltd, Lanchashire, UK) was placed into a cephalic vein.\n(§3) Blood samples were immediately centrifuged (12, 000 g for 5 min) and plasma was stored at -80°C until assay."}, "[7]": {"assay": "Population pharmacokinetic modeling of caspofungin plasma concentrations in healthy cats (HPLC-MS/MS, NONMEM)", "experimental": "as §1, §2, §3\nPharmacokinetic model development employed nonlinear mixed-effects modeling using NONMEM version 7.3 [17], with the Wings for NONMEM 7.3interface (http://wfn.sourceforge.net) and IFort compiler. […] Data manipulation and post-run processing of NONMEM output was conducted using the R data analysis language (Version 3.2.2) and the packages ggplot2, GGally, foreign, tidyr, Hmisc, gdata, doBy, plyr, grid, stringr with associated dependencies [17–28].\nThe base pharmacokinetic model was developed in a step-wise manner. Pharmacokinetic models were coded using the built-in ADVAN subroutines of NONMEM. Linear kinetic models with 1 and 2 compartments were evaluated. The First Order Conditional Estimation (FOCE) method was used to fit models. The base model was selected on the basis of mechanistic plausibility, visual inspection of goodness-of-fit diagnostic plots, the precision of parameter estimates (se% <30% for fixed, <50% for random effects parameters), and the lowest value of the Akaike’s information criterion (AIC; Eq 1) in accordance with the number of parameters and the final NONMEM derived objective function value (OBJ). The base model was also required to pass the covariance step.\nUnless stated otherwise, population parameter variability (PPV) was represented using an exponential error model (Eq 2): Pj=TVP*e^ηj (2) where Pj is the individual value for the parameter in the j^th individual, TVP is the typical population value of P and ηj is an independent random variable with a mean of zero and variance ω^2. PPV was systematically examined on each fixed-effect parameter. Models with and without covariance for P were investigated using the OMEGA BLOCK functionality of NONMEM.\nThe influence of the additive component of the error was also examined by a comparison with a proportional only error model."}, "[8]": {"details": "cats, 1 mg/kg IV infusion over 1 h, two-compartment model, scaled to 4 kg"}}, "note": "Read-outs that look alike come from different tables or passages of the source.", "data": [{"smiles": "CC[C@H](C)C[C@H](C)CCCCCCCCC(=O)N[C@H]1C[C@@H](O)[C@@H](NCCN)NC(=O)[C@@H]2[C@@H](O)CCN2C(=O)[C@H]([C@H](O)CCN)NC(=O)[C@H]([C@H](O)[C@@H](O)c2ccc(O)cc2)NC(=O)[C@@H]2C[C@@H](O)CN2C(=O)[C@H]([C@@H](C)O)NC1=O", "note": "[caspofungin, caspofungin acetate]", "values": [{"measurement": "MEC", "setting": "[1]; clinical isolates of A. felis from cats, all except one isolate", "result": "less than 0.06 μg/mL"}, {"measurement": "MEC", "setting": "[1]; one clinical isolate of A. felis", "result": 2, "unit": "µg/mL"}, {"measurement": "Unbound fraction in serum", "setting": "[2]; human serum", "result": "3–4%"}, {"measurement": "Unbound fraction in serum", "setting": "[2]; mouse serum", "result": "3–4%"}, {"measurement": "Frequency of chills", "setting": "[3]", "result": 5.3, "unit": "%"}, {"measurement": "Frequency of fever", "setting": "[3]", "result": 7.5, "unit": "%"}, {"measurement": "Frequency of liver enzyme elevations (ALT, AST or ALP)", "setting": "[3]", "result": 13.9, "unit": "%"}, {"measurement": "Frequency of nausea or vomiting", "setting": "[3]", "result": 5.3, "unit": "%"}, {"measurement": "Frequency of phlebitis", "setting": "[3]", "result": 3.5, "unit": "%"}, {"measurement": "Fungal burden versus mice dosed with 1 mg/kg q6 h", "setting": "[4]; mice dosed with 1 mg/kg q24 h or 2 mg/kg q48 h", "result": "significantly lower fungal burdens"}, {"measurement": "Effect on fungal growth at higher doses", "setting": "[4]; mice, 4 mg/kg, Cmax: MEC >20", "result": "paradoxical effect on fungal growth resulting in increased burdens"}, {"measurement": "Clearance in the typical 70 kg human", "setting": "[5]", "result": 10, "unit": "mL/min"}, {"measurement": "Trough concentration at steady state", "setting": "[5]; humans given 70 mg/kg of caspofungin daily", "result": "2.57 ± 0.34", "unit": "µg/mL"}, {"measurement": "Time at which steady state was achieved", "setting": "[5]; humans given of caspofungin daily", "result": "during the third week of administration"}, {"measurement": "Liver enzyme elevations", "setting": "[6]; healthy cats, 1 mg/kg IV daily", "result": "did not occur in any cats"}, {"measurement": "Tolerability", "setting": "[6]; healthy cats, 1 mg/kg IV over 1 h, single and 7 daily doses", "result": "well tolerated"}, {"measurement": "Changes on complete blood counts and multiple biochemical analyses", "setting": "[6]; healthy cats, after consecutive daily dosing 1 mg/kg IV", "result": "no changes"}, {"measurement": "Body temperature during minor transient hyperthermia", "setting": "[6]; one cat, during the first infusion only, reference range 37.5–39.1°C", "result": "39.6–39.8 °C"}, {"measurement": "Diarrhoea", "setting": "[6]; one cat, resolved within 24 h of the final infusion", "result": "mild transient diarrhoea"}, {"measurement": "clearance", "setting": "[7]; both, domestic shorthair, plasma, iv, 1 mg/kg", "result": 0.292, "unit": "mL/min"}, {"measurement": "Q (mL/h) * (WT/4)^0.75, inter-compartmental clearance, population estimate", "setting": "[7]; [8]", "result": 150, "unit": "mL/h"}, {"measurement": "V1 (mL) * (WT/4), central volume of distribution, population estimate", "setting": "[7]; [8]", "result": 214, "unit": "mL"}, {"measurement": "V2 (mL) * (WT/4), peripheral volume of distribution, population estimate", "setting": "[7]; [8]", "result": 143, "unit": "mL"}, {"measurement": "Time at which steady state was achieved", "setting": "[7]; cats, daily IV dosing", "result": "approximately 72 h"}]}]}
